Reference: ChEMBL document CHEMBL5500321, “Synthesis and clinical application of small-molecule drugs approved to treat prostatic cancer” (Eur J Med Chem, 2023)

Legend:
[1] = Antiproliferative activity against human LNCaP/AR cells assessed as reduction in cell growth measured after 3 days by CellTiter-Glo assay; type: functional, cell-based; conditions: 72 h
4T1 = experiment: Antitumor activity against mouse 4T1 cells xenografted in BALB/c mouse model assessed as reduction in tumor growth at 100 microg/ml measured after 20 days relative to control; type: functional; parameters: scale not given: the % may be the effect or the level left; conditions: dose 100 µg/ml; time 20 day
Tubulin = experiment: Inhibition of microtubule (unknown origin) polymerization; type: protein-complex assay, Homo sapiens
DU-145 = experiment: Antimitotic activity against human DU-145 cells assessed as reduction in cell proliferation incubated for 72 hrs by alamar blue based fluorescence spectrophotometric analysis; type: functional; conditions: DU-145, 72 h
T47D = experiment: Antiproliferative activity against human T47D cells assessed as reduction in cell growth incubated for 48 hrs by MTT assay; type: functional, cell-based
ZR-75-1 = experiment: Antiproliferative activity against human ZR-75-1 cells assessed as reduction in cell growth measured after 5 days by Celltiter-Glo assay; type: functional, cell-based; conditions: ZR-75-1, 120 h

Structure (SMILES): CC(O)(CS(=O)(=O)c1ccc(F)cc1)C(=O)Nc1ccc(C#N)c(C(F)(F)F)c1 (stereo unspecified) [BICALUTAMIDE]
- IC50 [1]: 160 nM

Structure (SMILES): CO[C@H]1C(=O)[C@]2(C)[C@@H](OC)C[C@H]3OC[C@@]3(OC(C)=O)[C@H]2[C@H](OC(=O)c2ccccc2)[C@]2(O)C[C@H](OC(=O)[C@H](O)[C@@H](NC(=O)OC(C)(C)C)c3ccccc3)C(C)=C1C2(C)C [CABAZITAXEL]
- Activity (4T1): 56.2%

Structure (SMILES): CC(=O)O[C@@]12CO[C@@H]1C[C@H](O)[C@@]1(C)C(=O)[C@H](O)C3=C(C)[C@@H](OC(=O)[C@H](O)[C@@H](NC(=O)OC(C)(C)C)c4ccccc4)C[C@@](O)([C@@H](OC(=O)c4ccccc4)[C@H]21)C3(C)C [DOCETAXEL ANHYDROUS]
- IC50 (Tubulin): 200 nM

Structure (SMILES): C[C@]12CC[C@@H]3c4ccc(OC(=O)N(CCCl)CCCl)cc4CC[C@H]3[C@@H]1CC[C@@H]2OP(=O)(O)O [ESTRAMUSTINE PHOSPHATE SODIUM]
- IC50 (DU-145): 16000 nM

Structure (SMILES): CC1(C)NC(=O)N(c2ccc([N+](=O)[O-])c(C(F)(F)F)c2)C1=O [NILUTAMIDE]
- IC50 (T47D): 87 nM
- IC50 (ZR-75-1): 75 nM
